Laboratory results published in US20230348459A1, “PYRROLIDINE COMPOUND AND USE THEREOF” (SIMCERE PHARMACEUTICAL CO., LTD., priority 2020, published 2023).

Experiments:
[1] = molecular target: estrogen receptors in MCF7 cells (Homo sapiens (Human), UniProt P03372); test: Degradation of estrogen receptors in MCF7 cells (in-cell western); assay type: cell-based; details: for DC50: 24 hours treatment, read-out: ER level DC50; for Dmax: 24 hours, 0.1 µM fulvestrant = 100% degradation control, read-out: Maximum degradation rate
estrogen receptors in MCF7 cells, sequence (P03372 whole entry): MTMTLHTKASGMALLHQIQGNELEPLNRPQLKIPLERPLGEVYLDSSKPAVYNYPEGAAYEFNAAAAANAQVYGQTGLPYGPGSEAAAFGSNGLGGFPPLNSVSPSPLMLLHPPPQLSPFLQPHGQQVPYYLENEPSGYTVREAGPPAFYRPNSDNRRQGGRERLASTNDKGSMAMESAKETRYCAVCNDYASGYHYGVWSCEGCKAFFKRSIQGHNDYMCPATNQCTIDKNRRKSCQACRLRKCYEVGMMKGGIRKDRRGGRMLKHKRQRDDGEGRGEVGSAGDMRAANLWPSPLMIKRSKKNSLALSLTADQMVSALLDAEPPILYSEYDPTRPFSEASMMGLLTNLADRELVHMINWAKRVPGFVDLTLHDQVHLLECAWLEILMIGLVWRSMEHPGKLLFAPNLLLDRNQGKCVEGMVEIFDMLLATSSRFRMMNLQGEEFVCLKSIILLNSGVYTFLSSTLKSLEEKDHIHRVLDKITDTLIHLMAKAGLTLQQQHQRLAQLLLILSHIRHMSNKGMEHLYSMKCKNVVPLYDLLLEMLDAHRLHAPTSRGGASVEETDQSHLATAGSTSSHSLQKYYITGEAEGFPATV
Protocol: The purpose of the experiment is to determine the degradation activity of the compounds of the present invention on endogenously expressed estrogen receptors in MCF7 cells, and to evaluate the activity of the compounds according to DC50 and maximum degradation efficiency.
MCF7 cells (ATCC, HTB-22) were cultured in DMEM (Gibco, 11995-065) complete medium containing 10% fetal bovine serum. On the first day of the experiment, MCF7 cells were inoculated in a 384-well plate at a density of 3000 cells/well using the complete medium, and cultured in a 37° C., 5% CO2 cell incubator. The compounds to be tested were dissolved in DMSO with a stock concentration of 10 mM, the solution was diluted with Echo 550 (Labcyte Inc.) and added to the cell culture plate. Each compound with the starting concentration for treatment of 100 nM was subjected to 3-fold gradient dilution with 9 concentration points. A blank control containing 0.5% DMSO was set, and double replicate wells as controls were set at each concentration point. The culture was cultured in a 37° C., 5% CO2 cell incubator for 24 hours. Paraformaldehyde was added to the cell culture medium in each cell culture well, and the final concentration of paraformaldehyde was about 3.7% to fix the cells. After the mixture was reacted for 30 minutes, the supernatant was discarded, and 50 µL of PBS was added to each well for washing once. The cells were treated with PBS containing 0.5% v/v Tween-20 for 30 minutes, and washed with PBS once. A blocking solution (PBS containing 5% BSA, 0.05% Tween-20) was added, and the mixture was incubated at room temperature for 1 hour. The blocking solution was removed, a mixture solution of primary antibodies (anti-ER mAb, Estrogen Receptor α (D8H8) Rabbit mAb, GST, # 8644S, 1 : 1000 dilution; anti-GAPDH mAb, GAPDH(D4C6R) Mouse mAb, GST, #97166S, 1 : 2000 dilution) was added, and the mixture was incubated at room temperature for 3 hours. The culture was washed with PBST (PBS containing 0.05% Tween-20) 3 times. Secondary antibodies for detection (800CW-goat anti-rabbit IgG, LI-COR, P/N: 926-32211, 1 : 1000 dilution; 680RD-goat anti-mouse IgG, LI-COR, #925-68070, 1 : 1000 dilution) were added, and the mixture was incubated at room temperature and in the dark for 45 minutes. After washing with PBST 3 times, the fluorescence signal of each well was read using Odyssey CLx, and the value of Chanel 800 (ER)/Chanel 680 (GAPDH) was calculated. The wells treated with 0.1 µM fulvestrant were used as the 100% degradation control, and the degradation rate at each concentration point was calculated. The data were analyzed and processed by XlLfit, and the degradation activity DC50 and the maximum degradation rate Imax of each compound were calculated.

[2] = system: MCF7 cells; test: Inhibition of the proliferation of MCF7 cells (CellTiter-Glo); assay type: cell-based; details: Homo sapiens, MCF7, 168 h; 7 days treatment; read-out: MCF-7 cell proliferation inhibition IC50
Protocol: The purpose of the experiment is to determine the inhibitory effect of the compounds of the present invention on the proliferation of MCF7 cells in vitro, and to evaluate the activity of the compounds according to IC50 and maximum inhibitory efficiency.
MCF7 cells (ATCC, HTB-22) were cultured in DMEM (Gibco, 11995-065) complete medium containing 10% fetal bovine serum. On the first day of the experiment, MCF7 cells were inoculated in a 384-well plate at a density of 500 cells/well using the complete medium, and cultured in a 37° C., 5% CO2 cell incubator overnight. The next day, the compounds to be tested were added for drug treatment, and the compound solution with a stock concentration of 10 mM was diluted with Echo550 (Labcyte Inc.) and transferred to each cell culture well. Each compound with the starting concentration for treatment of 100 nM in cells was subjected to 3-fold gradient dilution with 9 concentration points. A blank control containing 0.3% DMSO was set, and double replicate wells as controls were set at each concentration point. The culture was cultured in a 37° C., 5% CO2 cell incubator for 7 days, and the cell culture plate was taken out on day 8.

[3] = system: MCF-7 intracranial tumor; test: Growth inhibition in MCF-7 intracranial tumor model in mice; details: 250 mg/kg SC once weekly
Protocol: Animal information: NPG mice (female, 6-8 weeks, body weight: about 17-29 g) were purchased from Beijing Vitalstar Biotechnology Co., Ltd. The mice were fed in SPF environment and each cage position was individually ventilated.
Cell culture: The human breast cancer MCF-7 cell line was cultured in vitro in EMEM (cell culture medium) supplemented with 10% fetal bovine serum, 1% Pen Strep and 10 µg/ml recombinant human insulin in a 37° C., 5% CO2 incubator. Conventional digestion treatment with 0.25% trypsin-EDTA digestion solution was carried out twice weekly for passage. When the cell saturation was 80%-90%, and the number reached the requirement, the cells were collected and counted.
Cell inoculation: 15 µl/(containing 2 × 10^6) MCF-7 cell suspension was inoculated into the brain of mice using a stereotaxic apparatus, a micro-injection pump and a miniature handheld cranial drill, and the mice were subcutaneously inoculated with 17β-estradiol tablets three days before the cell inoculation. On day 8 after cell inoculation, the mice were randomized into groups for administration according to the body weight thereof, and the day of grouping was Day 0.
11 mice were in the vehicle group and 8 mice were in the administration group. Mice in all groups were continuously administered until the mice died, which were euthanized due to poor state or the end of the experiment.
The body weight of the mice was measured twice weekly, and the survival status of the mice was observed.
At the end of the experiment on Day 48, all mice were euthanized.

DC50 [1] [nM] | Dmax [1] [%] | IC50 [2] [nM] | SMILES | Body weight of mice [3] | Median survival period [3] [days]
0.58 | 80 | 2.57 | C[C@@H]1Cc2c([nH]c3ccccc23)[C@@H](c2c(F)cc(N[C@@H]3CN(CCCF)C[C@H]3F)cc2F)N1CC(F)(F)F (stereo in doubt) [Example 5, trans-N-(3,5-difluoro-4-((1S,3R)-3-methyl-2-(2,2,2-trifluoroethyl)-2,3,4,9-tetrahydro-1H-pyridino[3,4-b]indol-1-yl)phenyl)-4-fluoro-1-(3-fluoropropyl)pyrrolidin-3-amine] | – | –
0.5 | 90 | 2.39 | C[C@@H]1CN(CCCF)C[C@H]1Nc1cc(F)c([C@@H]2c3[nH]c4ccccc4c3C[C@@H](C)N2CC(F)(F)F)c(F)c1 (stereo in doubt) [Example 6, trans-N-[3,5-difluoro-4-[(1S,3R)-3-methyl-2-(2,2,2-trifluoroethyl)-1,3,4,9-tetrahydropyridino[3,4-b]indol-1-yl]phenyl]-1-(3-fluoropropyl)-4-methyl-pyrrolidin-3-amine] | – | –
0.41 | 106 | 0.58 | C[C@@H]1Cc2c([nH]c3ccccc23)[C@@H](c2ccc(NC3CCN(CCCF)C3)cn2)N1CC(F)(F)F (stereo partly drawn) [Example 1, N-(1-(3-fluoropropyl)pyrrolidin-3-yl)-6-((1S,3R)-3-methyl-2-(2,2,2-trifluoroethyl)-2,3,4,9-tetrahydro-1H-pyridino[3,4-b]indol-1-yl)pyridine-3-amine] | – | –
8.5 | 92 | 15 | C[C@@H]1Cc2c([nH]c3ccccc23)[C@@H](c2ccc(N[C@@H]3CCN(CCCF)C3)cn2)N1CC(F)(F)F [Example 2] | – | –
– | – | – | C[C@]12CC[C@@H]3c4ccc(O)cc4C[C@@H](CCCCCCCCC[S+]([O-])CCCC(F)(F)C(F)(F)F)[C@H]3[C@@H]1CC[C@@H]2O (some centres unmarked) [Fulvestrant, reference compound] | continued to lose weight | 29.5
